Test [1] deals with T1, Cysteinyl leukotriene receptor 1 (Homo sapiens, UniProt Q9Y271).
T1 sequence (Q9Y271 whole entry): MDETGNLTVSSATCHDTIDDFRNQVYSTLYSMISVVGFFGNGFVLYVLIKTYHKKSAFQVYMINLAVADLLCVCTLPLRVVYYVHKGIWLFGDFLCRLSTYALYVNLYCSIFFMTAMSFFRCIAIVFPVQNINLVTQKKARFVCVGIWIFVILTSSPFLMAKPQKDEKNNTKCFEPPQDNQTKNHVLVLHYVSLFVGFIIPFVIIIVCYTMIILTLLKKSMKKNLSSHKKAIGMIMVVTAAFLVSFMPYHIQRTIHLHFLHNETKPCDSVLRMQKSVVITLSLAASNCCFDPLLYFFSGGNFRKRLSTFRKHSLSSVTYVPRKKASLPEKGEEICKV
Type of test: cell membranes, Membrane. To be noted: cho-k1.

Test [2] deals with T2, Amine oxidase [flavin-containing] A (Homo sapiens, UniProt P21397).
T2 sequence (P21397 whole entry): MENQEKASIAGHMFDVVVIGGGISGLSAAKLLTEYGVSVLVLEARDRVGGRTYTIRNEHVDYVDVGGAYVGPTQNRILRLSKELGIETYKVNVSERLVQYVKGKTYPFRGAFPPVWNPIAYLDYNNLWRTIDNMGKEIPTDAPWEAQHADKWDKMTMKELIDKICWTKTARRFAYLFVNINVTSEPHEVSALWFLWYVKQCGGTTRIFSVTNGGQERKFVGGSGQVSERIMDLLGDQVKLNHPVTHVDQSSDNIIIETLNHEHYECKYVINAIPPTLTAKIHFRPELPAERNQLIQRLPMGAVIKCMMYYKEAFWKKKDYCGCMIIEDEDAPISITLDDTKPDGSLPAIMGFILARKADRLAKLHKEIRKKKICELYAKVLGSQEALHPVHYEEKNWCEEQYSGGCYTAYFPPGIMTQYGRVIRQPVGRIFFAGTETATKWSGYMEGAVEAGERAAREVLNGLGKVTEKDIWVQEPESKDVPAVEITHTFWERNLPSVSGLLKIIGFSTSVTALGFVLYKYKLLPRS
Kind of test: DRUGMATRIX: Monoamine Oxidase MAO-A enzyme inhibition (substrate: Kynuramine). Set-up: species or system BTI-TN-5B1-4. The settings on record: Not Active = under 50% inhibition at 10 µM.

In another test the target is Melanocortin receptor 3 (Homo sapiens, UniProt P41968). It counts as cell membranes, HEK293, Membrane. To be noted: hek293. Also: in other assays of this panel Not Active means under 50% inhibition at 10 µM.
The target of another test is T3, Leukotriene C4 synthase (Cavia porcellus, UniProt A6XA80).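 Also: enzyme inhibition assay of leukotriene C4 synthase, using LTA4 as the substrate; in other assays of this panel Not Active means under 50% inhibition at 10 µM.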
T3 sequence (A6XA80 whole entry): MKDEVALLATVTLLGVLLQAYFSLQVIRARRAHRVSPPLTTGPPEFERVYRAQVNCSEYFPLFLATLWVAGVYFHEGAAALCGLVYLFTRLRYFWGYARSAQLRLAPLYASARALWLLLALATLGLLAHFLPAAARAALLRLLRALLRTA
It counts as tissue-based, Lung.

The target of the next test is T4, Estrogen receptor (Homo sapiens, UniProt P03372). Also: in other assays of this panel Not Active means under 50% inhibition at 10 µM.
T4 sequence (P03372 whole entry): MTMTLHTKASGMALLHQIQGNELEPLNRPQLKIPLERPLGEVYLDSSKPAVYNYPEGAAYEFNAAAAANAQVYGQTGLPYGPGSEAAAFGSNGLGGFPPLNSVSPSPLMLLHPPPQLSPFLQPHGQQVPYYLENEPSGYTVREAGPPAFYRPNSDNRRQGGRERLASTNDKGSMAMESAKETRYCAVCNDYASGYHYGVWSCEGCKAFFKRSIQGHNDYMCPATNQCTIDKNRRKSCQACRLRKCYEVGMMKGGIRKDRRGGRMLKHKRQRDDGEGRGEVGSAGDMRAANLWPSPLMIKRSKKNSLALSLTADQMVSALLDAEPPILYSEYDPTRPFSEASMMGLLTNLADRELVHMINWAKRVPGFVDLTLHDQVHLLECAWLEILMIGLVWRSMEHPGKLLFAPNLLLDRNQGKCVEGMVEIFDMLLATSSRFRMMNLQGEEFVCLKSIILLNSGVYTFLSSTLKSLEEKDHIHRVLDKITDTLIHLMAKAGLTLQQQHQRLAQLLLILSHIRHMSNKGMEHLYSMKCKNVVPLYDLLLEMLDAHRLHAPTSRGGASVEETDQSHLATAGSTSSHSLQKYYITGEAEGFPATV
To be noted: sf9.

For the next test, the target named is D(1A) dopamine receptor (Homo sapiens, UniProt P21728). Kind of test: DRUGMATRIX: Dopamine D1 radioligand binding (ligand: [3H] SCH-23390). It counts as cell membranes, CHO, Membrane. The settings on record: cho; Not Active = under 50% inhibition at 10 µM.
Test [3] in a line: DRUGMATRIX: Atrial Natriuretic Factor (ANF) radioligand binding (ligand: [125I] ANF (rat)). It counts as cell membranes, Cavia porcellus, Dunkin-Hartley, Adrenal gland, Membrane. To be noted: Not Active = under 50% inhibition at 10 µM.
Test [4] in a line: DRUGMATRIX: Serotonin (5-Hydroxytryptamine) 5-HT3 radioligand binding (ligand: [3H] GR-65630). Type of test: cell membranes, Membrane. The settings on record: hek293; Not Active = under 50% inhibition at 10 µM.

As usually defined, the IC50 is the midpoint of a concentration-inhibition curve.

Sequence of D(1A) dopamine receptor (P21728 whole entry): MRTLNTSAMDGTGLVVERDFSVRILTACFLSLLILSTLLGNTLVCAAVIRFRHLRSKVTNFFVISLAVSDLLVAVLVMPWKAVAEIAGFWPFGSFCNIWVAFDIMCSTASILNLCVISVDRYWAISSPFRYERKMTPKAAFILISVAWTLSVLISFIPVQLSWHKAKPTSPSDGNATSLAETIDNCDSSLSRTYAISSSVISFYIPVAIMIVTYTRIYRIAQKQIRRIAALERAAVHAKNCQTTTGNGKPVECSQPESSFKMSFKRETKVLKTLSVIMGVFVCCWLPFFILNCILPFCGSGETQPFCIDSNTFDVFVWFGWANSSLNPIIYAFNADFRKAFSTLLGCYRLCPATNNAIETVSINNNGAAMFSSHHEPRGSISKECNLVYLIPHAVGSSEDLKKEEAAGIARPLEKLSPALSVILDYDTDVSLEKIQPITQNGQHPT
Sequence of Melanocortin receptor 3 (P41968 whole entry): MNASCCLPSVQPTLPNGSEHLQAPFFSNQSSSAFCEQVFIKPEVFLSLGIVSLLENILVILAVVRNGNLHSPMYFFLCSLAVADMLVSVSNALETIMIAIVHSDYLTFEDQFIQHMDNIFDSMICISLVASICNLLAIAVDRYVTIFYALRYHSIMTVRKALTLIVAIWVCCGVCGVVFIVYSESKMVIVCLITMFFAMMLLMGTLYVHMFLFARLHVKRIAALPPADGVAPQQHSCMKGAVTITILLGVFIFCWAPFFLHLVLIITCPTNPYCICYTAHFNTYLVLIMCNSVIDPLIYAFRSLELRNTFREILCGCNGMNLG

As to `CN(C)CCOC(c1ccccc1)c1ccccc1` [DIPHENHYDRAMINE], the IC50 entry (in test [1]; in test [2] (bti-tn-5b1-4); at Melanocortin receptor 3; against Leukotriene C4 synthase; at Estrogen receptor) was “Not Active” throughout.
`Clc1ccc(COC(Cn2ccnc2)c2ccc(Cl)cc2Cl)cc1` (centres undefined) [ECONAZOLE]: the IC50 result (in test [1]; in test [2] (bti-tn-5b1-4); on Leukotriene C4 synthase; against Estrogen receptor) was “Not Active” in each case.
For the compound `CCN(CC)CCOc1ccc(/C(=C(/Cl)c2ccccc2)c2ccccc2)cc1` [ENCLOMIPHENE], the IC50 entry (in test [1]; in test [2] (bti-tn-5b1-4); at Melanocortin receptor 3; against Leukotriene C4 synthase) was “Not Active” in each case.
On to `Fc1ccc(C(c2ccc(F)cc2)N2CCN(C/C=C/c3ccccc3)CC2)cc1` [FLUNARIZINE], for which the IC50 result (in test [1]; in test [2] (bti-tn-5b1-4); on Melanocortin receptor 3; on Leukotriene C4 synthase; against Estrogen receptor) was “Not Active” in each case.
On to `CNCCC(Oc1ccc(C(F)(F)F)cc1)c1ccccc1` (centres undefined) [FLUOXETINE], for which the concentration for half-maximal inhibition (IC50) entry (in test [1]; in test [2] (bti-tn-5b1-4); at Melanocortin receptor 3; on Leukotriene C4 synthase) was “Not Active” each time.
Consider `CC(C)Oc1ccc2c(=O)c(-c3ccccc3)coc2c1` [IPRIFLAVONE], for which the IC50 entry (in test [1]; in test [2] (bti-tn-5b1-4); at D(1A) dopamine receptor; in test [3]; against Melanocortin receptor 3; on Leukotriene C4 synthase) was “Not Active” throughout. Also, the IC50 result in test [4] is recorded as “Not Active”. The Ki result in test [3] and in test [4] was “Not Active” in each case.
On to `CC(C)NCC(O)c1ccc(O)c(O)c1` (centres undefined) [ISOPROTERENOL], for which the IC50 entry (in test [1]; in test [2] (bti-tn-5b1-4); at D(1A) dopamine receptor; in test [3]; on Melanocortin receptor 3; against Leukotriene C4 synthase) was “Not Active” in each case. Also, in test [4], the IC50 result was “Not Active”. The Ki result in test [3] and in test [4] was “Not Active” in each case.
On to `CCN1CCC[C@H]1CNC(=O)c1cc(S(N)(=O)=O)ccc1OC` [LEVOSULPIRIDE], for which the IC50 result (in test [1]; in test [2] (bti-tn-5b1-4); at D(1A) dopamine receptor; in test [3]; at Melanocortin receptor 3; on Leukotriene C4 synthase) was “Not Active” throughout. In addition, the half-inhibitory concentration (IC50) entry in test [4] was “Not Active”. Besides, the Ki entry in test [3] and in test [4] was “Not Active” throughout.
Regarding `CCN(CC)CC(=O)Nc1c(C)cccc1C` [LIDOCAINE], the IC50 entry (in test [1]; in test [2] (bti-tn-5b1-4); at D(1A) dopamine receptor; in test [3]; at Melanocortin receptor 3; on Leukotriene C4 synthase) was “Not Active” throughout. In addition, the IC50 entry in test [4] is reported as “Not Active”. Also, the Ki result in test [3] and in test [4] was “Not Active” each time.
As for `COc1c2occc2cc2ccc(=O)oc12` [METHOXSALEN], the IC50 result (in test [1]; in test [2] (bti-tn-5b1-4); on D(1A) dopamine receptor; in test [3]; against Melanocortin receptor 3; on Leukotriene C4 synthase) was “Not Active” throughout. Besides, the IC50 entry in test [4] was “Not Active”. Further, the Ki entry in test [3] and in test [4] was “Not Active” throughout.
Regarding `C[C@H]1C[C@@H]2[C@H]([C@@H](O)C[C@@]3(C)[C@H]2CC[C@]3(O)C(=O)CO)[C@@]2(C)C=CC(=O)C=C12` [METHYLPREDNISOLONE], the IC50 entry (in test [1]; in test [2] (bti-tn-5b1-4); on D(1A) dopamine receptor; in test [3]; on Melanocortin receptor 3; at Leukotriene C4 synthase) was “Not Active” in each case. For the same compound, the IC50 result in test [4] is “Not Active”. In addition, the Ki result in test [3] and in test [4] was “Not Active” in each case.
Consider `CC[C@@H](C(=O)[C@@H](C)[C@@H](O)[C@H](C)[C@@H]1O[C@@H]([C@@H](CC)C(=O)O)CC[C@@H]1C)[C@H]1O[C@]2(C=C[C@@H](O)[C@]3(CC[C@@](C)([C@H]4CC[C@](O)(CC)[C@H](C)O4)O3)O2)[C@H](C)C[C@@H]1C` [SALINOMYCIN], for which the IC50 entry (in test [1]; in test [2] (bti-tn-5b1-4); at D(1A) dopamine receptor; in test [3]; against Melanocortin receptor 3; against Leukotriene C4 synthase) was “Not Active” each time. In test [4], the IC50 result is recorded as “Not Active”. Also, the Ki entry in test [3] and in test [4] was “Not Active” throughout.
Turning to `O=C(O)c1cn(-c2ccc(F)cc2)c2cc(N3CCNCC3)c(F)cc2c1=O` [SARAFLOXACIN], the IC50 entry (in test [1]; in test [2] (bti-tn-5b1-4); on D(1A) dopamine receptor; in test [3]; against Melanocortin receptor 3; at Leukotriene C4 synthase) was “Not Active” throughout. For the same compound, in test [4], the IC50 result is reported as “Not Active”. Besides, the Ki entry in test [3] and in test [4] was “Not Active” throughout.
`CC(C)NCC(O)c1ccc(NS(C)(=O)=O)cc1` (centres undefined) [SOTALOL]: the IC50 result (in test [1]; in test [2] (bti-tn-5b1-4); at D(1A) dopamine receptor; in test [3]; on Melanocortin receptor 3; at Leukotriene C4 synthase) was “Not Active” each time. Moreover, the IC50 result in test [4] was “Not Active”. Also, the Ki result in test [3] and in test [4] was “Not Active” in each case.
As for `O.O.O.O.O.O.[Cl-].[Cl-].[Sr+2]` [STRONTIUM CHLORIDE HEXAHYDRATE], the IC50 result (in test [1]; in test [2] (bti-tn-5b1-4); at D(1A) dopamine receptor; in test [3]; against Melanocortin receptor 3; against Leukotriene C4 synthase) was “Not Active” in each case. Also, in test [4], the concentration for half-maximal inhibition (IC50) entry is on record as “Not Active”. The Ki result in test [3] and in test [4] was “Not Active” each time.
On to `CN(C/C=C/C#CC(C)(C)C)Cc1cccc2ccccc12` [TERBINAFINE], for which the IC50 result (in test [1]; in test [2] (bti-tn-5b1-4); at D(1A) dopamine receptor; in test [3]; on Melanocortin receptor 3; on Leukotriene C4 synthase) was “Not Active” throughout. Moreover, the IC50 entry in test [4] is recorded as “Not Active”. The Ki entry in test [3] and in test [4] was “Not Active” throughout.
On to `CCCCNc1ccc(C(=O)OCCN(C)C)cc1` [TETRACAINE], for which the IC50 result in test [1] was “Not Active”; in test [2] (read-out: IC50), 317 nM; at D(1A) dopamine receptor, “Not Active”; in test [3], “Not Active”; against Melanocortin receptor 3 it was “Not Active”; on Leukotriene C4 synthase it was “Not Active”. Moreover, in test [4], the IC50 result is given as “Not Active”. For the same compound, the Ki result in test [3] and in test [4] was “Not Active” throughout.
Regarding `Cn1c(=O)c2nc[nH]c2n(C)c1=O.O` [THEOPHYLLINE], the IC50 result (in test [1]; in test [2] (bti-tn-5b1-4); at D(1A) dopamine receptor; in test [3]; against Melanocortin receptor 3; against Leukotriene C4 synthase) was “Not Active” in each case. Besides, in test [4], the concentration for half-maximal inhibition (IC50) entry was “Not Active”. Further, the Ki result in test [3] and in test [4] was “Not Active” throughout.

The values above are taken from ChEMBL document CHEMBL1909046, “DrugMatrix in vitro pharmacology data”.
